Source: patent publication US6559101B2, “N- (5, 7-dimethoxy [1, 2, 4] triazolo [1, 5-a] pyrimidin-2-yl) arylsulfonamide compounds and their use as herbicides” (Dow AgroSciences LLC, priority 2000, dated 2003)

Tests used:
Format in all cases: in vivo
[1] = system: giant foxtail (Setaria faberi); assay: Postemergence herbicidal activity; conditions: scored after 2 weeks, 0 no injury, 100 complete kill
Experimental: (§1) Seeds of the desired test plant species were planted in Grace-Sierra MetroMix® 306 planting mixture, which typically has a pH of 6.0 to 6.8 and an organic matter content of about 30 percent, in plastic pots with a surface area of 64 square centimeters. When required to ensure good germination and healthy plants, a fungicide treatment and/or other chemical or physical treatment was applied. The plants were grown for 7-21 days in a greenhouse with an approximately 15 hr photoperiod which was maintained at about 23-29° C. during the day and 22-28° C. during the night. Nutrients and water were added on a regular basis and supplemental lighting was provided with overhead metal halide 1000 Watt lamps as necessary. The plants were employed for testing when they reached the first or second true leaf stage. A weighed amount of each test compound, determined by the highest rate to be tested, was placed in a 20 mL glass vial and was dissolved in 4 mL of a 97:3 v/v (volume/volume) mixture of acetone and dimethyl sulfoxide to obtain concentrated stock solutions. […] The concentrated stock solutions obtained were diluted with an aqueous mixture containing acetone, water, iso-propyl alcohol, dimethyl sulfoxide, Atplus 411F crop oil concentrate, and Triton X-155 surfactant (methylenebisdiamyl phenoxy polyethoxy ethanol) in a 48.5:39:10:1.5:1.0:0.02 v/v ratio to obtain spray solutions of known concentration. The solutions containing the highest concentration to be tested were prepared by diluting 2 mL aliquots of the stock solution with 13 mL of the mixture and lower concentrations were prepared by dilution of appropriate smaller portions of the stock solution. Approximately 1.5 mL aliquots of each solution of known concentration were sprayed evenly onto each of the test plant pots using a Devilbiss atomizer driven by compressed air pressure of 2 to 4 psi (140 to 280 kiloPascals) to obtain thorough coverage of each plant. Control plants were sprayed in the same manner with the aqueous mixture. In this test an application rate of 1 ppm results in the application of approximately 1 g/ha. The treated plants and control plants were placed in a greenhouse as described above and watered by sub-irrigation to prevent wash-off of the test compounds. After 2 weeks the condition of the test plants as compared with that of the untreated plants was determined visually and scored on a scale of 0 to 100 percent where 0 corresponds to no injury and 100 corresponds to complete kill.

[2] = system: wild buckwheat (Polygonum convolvulus); assay: Postemergence herbicidal activity; conditions: scored after 2 weeks, 0 no injury, 100 complete kill
Experimental: as §1

[3] = system: cocklebur (Xanthium strumarium); assay: Postemergence herbicidal activity; conditions: scored after 2 weeks, 0 no injury, 100 complete kill
Experimental: as §1

wild oats (Avena fatua) [4] = assay: Postemergence herbicidal activity; conditions: scored after 2 weeks, 0 no injury, 100 complete kill
Experimental: as §1

viola (Viola tricolor) = assay: Postemergence herbicidal activity; conditions: scored after 2 weeks, 0 no injury, 100 complete kill
Experimental: as §1

[5] = system: lambsquarters (Chenopodium album); assay: Postemergence herbicidal activity; conditions: scored after 2 weeks, 0 no injury, 100 complete kill
Experimental: as §1

[6] = system: velvetleaf (Abutilion theophrasti); assay: Postemergence herbicidal activity; conditions: scored after 2 weeks, 0 no injury, 100 complete kill
Experimental: as §1

[7] = system: morningglory (Ipomoea hederacea); assay: Postemergence herbicidal activity; conditions: scored after 2 weeks, 0 no injury, 100 complete kill
Experimental: as §1

[8] = system: blackgrass (Alopecurus myosuroides); assay: Postemergence herbicidal activity; conditions: scored after 2 weeks, 0 no injury, 100 complete kill
Experimental: as §1

[9] = system: chickweed (Stellaria media); assay: Postemergence herbicidal activity; conditions: scored after 2 weeks, 0 no injury, 100 complete kill
Experimental: as §1

[10] = system: pigweed (Amaranthus retroflexus); assay: Postemergence herbicidal activity; conditions: scored after 2 weeks, 0 no injury, 100 complete kill
Experimental: as §1

[11] = system: Rox orange sorghum (Sorghum bicolor); assay: Postemergence herbicidal activity; conditions: scored after 2 weeks, 0 no injury, 100 complete kill
Experimental: as §1

[12] = system: wild poinsettia (Euphorbia heterophylla); assay: Preemergence herbicidal activity; conditions: scored after 3 weeks, 0 no injury, 100 complete kill or no germination
Experimental: (§2) The soil matrix was contained in plastic pots with a surface area of 161 square centimeters. When required to ensure good germination and healthy plants, a fungicide treatment and/or other chemical or physical treatment was applied. A weighed amount, determined by the highest rate to be tested, of each test compound was placed in a 20 mL glass vial and was dissolved in 8 mL of a 97:3 v/v (volume/volume) mixture of acetone and dimethyl sulfoxide to obtain concentrated stock solutions. […] The stock solutions obtained were diluted with a 99.9:0.1 mixture of water and Tween® 155 surfactant (ethoxylated sorbitan fatty acid ester) to obtain application solutions of known concentration. The solutions containing the highest concentration to be tested were prepared by diluting 4 mL aliquots of the stock solution with 8.5 mL of the mixture and lower concentrations were prepared by dilution of appropriate smaller portions of the stock solution. A 2.5 mL aliquot of each solution of known concentration was sprayed evenly onto the soil of each seeded pot using a Cornwall 5.0 mL glass syringe fitted with a TeeJet TN-3 hollow cone nozzle to obtain thorough coverage of the soil in each pot. Control pots were sprayed in the same manner with the aqueous mixture. A highest application rate of 4.48 kg/ha is achieved when 50 mg of test compound is employed. The treated pots and control pots were placed in a greenhouse with an approximately 15 hr photoperiod which was maintained at about 23-29° C. during the day and 22-28° C. during the night. Nutrients and water were added on a regular basis and supplemental lighting was provided with overhead metal halide 1000 Watt lamps as necessary. The water was added by top-irrigation. After 3 weeks the condition of the test plants that germinated and grew as compared with that of the untreated plants that germinated and grew was determined visually and scored on a scale of 0 to 100 percent where 0 corresponds to no injury and 100 corresponds to complete kill or no germination.

[13] = system: giant foxtail (Setaria faberi); assay: Preemergence herbicidal activity; conditions: scored after 3 weeks, 0 no injury, 100 complete kill or no germination
Experimental: as §2

[14] = system: crabgrass (Digitaria sanguinalis); assay: Preemergence herbicidal activity; conditions: scored after 3 weeks, 0 no injury, 100 complete kill or no germination
Experimental: as §2

[15] = system: cocklebur (Xanthium strumarium); assay: Preemergence herbicidal activity; conditions: 70 g/Ha; scored after 3 weeks; 0 no injury, 100 complete kill or no germination
Experimental: as §2

wild oats (Avena fatua) [16] = assay: Preemergence herbicidal activity; conditions: scored after 3 weeks, 0 no injury, 100 complete kill or no germination
Experimental: as §2

[17] = system: barnyardgrass (Echinochloa crus-galli); assay: Preemergence herbicidal activity; conditions: scored after 3 weeks, 0 no injury, 100 complete kill or no germination
Experimental: as §2

[18] = system: velvetleaf (Abutilion theophrasti); assay: Preemergence herbicidal activity; conditions: scored after 3 weeks, 0 no injury, 100 complete kill or no germination
Experimental: as §2

[19] = system: morningglory (Ipomoea hederacea); assay: Preemergence herbicidal activity; conditions: scored after 3 weeks, 0 no injury, 100 complete kill or no germination
Experimental: as §2

[20] = system: blackgrass (Alopecurus myosuroides); assay: Preemergence herbicidal activity; conditions: scored after 3 weeks, 0 no injury, 100 complete kill or no germination
Experimental: as §2

[21] = system: pigweed (Amaranthus retroflexus); assay: Preemergence herbicidal activity; conditions: scored after 3 weeks, 0 no injury, 100 complete kill or no germination
Experimental: as §2

[22] = system: Rox orange sorghum (Sorghum bicolor); assay: Preemergence herbicidal activity; conditions: scored after 3 weeks, 0 no injury, 100 complete kill or no germination
Experimental: as §2

[23] = system: lambsquarters (Chenopodium album); assay: Preemergence herbicidal activity; conditions: 35 g/Ha; scored after 3 weeks; 0 no injury, 100 complete kill or no germination
Experimental: as §2

COc1cc(OC)n2nc(NS(=O)(=O)c3cc(Cl)ccc3OC)nc2n1 [Compound 5]
Postemergence herbicidal activity SETFA ([1]; 62.5 ppm): 98%
Postemergence herbicidal activity POLCO ([2]; 62.5 ppm): 98%
Postemergence herbicidal activity XANST ([3]; 62.5 ppm): 100%
Postemergence herbicidal activity AVEFA (wild oats (Avena fatua) [4]; 62.5 ppm): 99%
Postemergence herbicidal activity VIOTR (viola (Viola tricolor); 62.5 ppm): 90%
Postemergence herbicidal activity CHEAL ([5]; 62.5 ppm): 95%
Postemergence herbicidal activity ABUTH ([6]; 62.5 ppm): 98%
Postemergence herbicidal activity IPOHE ([7]; 62.5 ppm): 80%
Postemergence herbicidal activity ALOMY ([8]; 62.5 ppm): 95%
Postemergence herbicidal activity STEME ([9]; 62.5 ppm): 98%
Postemergence herbicidal activity AMARE ([10]; 62.5 ppm): 100%
Postemergence herbicidal activity SORBI ([11]; 62.5 ppm): 100%
Preemergence herbicidal activity EPHHL ([12]; 70 g/Ha): 90%
Preemergence herbicidal activity SETFA ([13]; 70 g/Ha): 98%
Preemergence herbicidal activity DIGSA ([14]; 70 g/Ha): 99%
Preemergence herbicidal activity XANST [15]: 85%
Preemergence herbicidal activity AVEFA (wild oats (Avena fatua) [16]; 70 g/Ha): 99%
Preemergence herbicidal activity ECHCG ([17]; 70 g/Ha): 98%
Preemergence herbicidal activity ABUTH ([18]; 70 g/Ha): 95%
Preemergence herbicidal activity IPOHE ([19]; 70 g/Ha): 75%
Preemergence herbicidal activity ALOMY ([20]; 70 g/Ha): 100%
Preemergence herbicidal activity AMARE ([21]; 70 g/Ha): 99%
Preemergence herbicidal activity SORBI ([22]; 70 g/Ha): 95%

CCOc1ccc(C)cc1S(=O)(=O)Nc1nc2nc(OC)cc(OC)n2n1 [Compound 10]
Postemergence herbicidal activity SETFA ([1]; 7.8 ppm): 80%
Postemergence herbicidal activity POLCO ([2]; 7.8 ppm): 85%
Postemergence herbicidal activity XANST ([3]; 7.8 ppm): 50%
Postemergence herbicidal activity AVEFA (wild oats (Avena fatua) [4]; 7.8 ppm): 90%
Postemergence herbicidal activity VIOTR (viola (Viola tricolor); 7.8 ppm): 85%
Postemergence herbicidal activity CHEAL ([5]; 7.8 ppm): 95%
Postemergence herbicidal activity ABUTH ([6]; 7.8 ppm): 50%
Postemergence herbicidal activity IPOHE ([7]; 7.8 ppm): 20%
Postemergence herbicidal activity ALOMY ([8]; 7.8 ppm): 80%
Postemergence herbicidal activity STEME ([9]; 7.8 ppm): 85%
Postemergence herbicidal activity AMARE ([10]; 7.8 ppm): 95%
Postemergence herbicidal activity SORBI ([11]; 7.8 ppm): 85%
Preemergence herbicidal activity EPHHL ([12]; 35 g/Ha): 40%
Preemergence herbicidal activity SETFA ([13]; 35 g/Ha): 40%
Preemergence herbicidal activity DIGSA ([14]; 35 g/Ha): 0%
Preemergence herbicidal activity AVEFA (wild oats (Avena fatua) [16]; 35 g/Ha): 80%
Preemergence herbicidal activity ECHCG ([17]; 35 g/Ha): 80%
Preemergence herbicidal activity CHEAL [23]: 90%
Preemergence herbicidal activity ABUTH ([18]; 35 g/Ha): 60%
Preemergence herbicidal activity IPOHE ([19]; 35 g/Ha): 0%
Preemergence herbicidal activity ALOMY ([20]; 35 g/Ha): 30%
Preemergence herbicidal activity AMARE ([21]; 35 g/Ha): 98%
Preemergence herbicidal activity SORBI ([22]; 35 g/Ha): 100%
